# Tests used:
# [1] = target: DNA (cytosine-5)-methyltransferase 1 (Homo sapiens, UniProt P26358); experiment: Inhibition of DNMT1 (unknown origin)
# [2] = test system: PANC-1; experiment: Antiproliferative activity against human PANC-1 cells assessed as reduction in cell growth incubated for 24 hrs by MTT assay; type: functional, cell-based; conditions: PANC-1, 24 h
# [3] = target: T1, Histone-lysine N-methyltransferase EHMT2 (Homo sapiens, UniProt Q96KQ7); experiment: Inhibition of G9a (unknown origin)
# T1 sequence (Q96KQ7 whole entry): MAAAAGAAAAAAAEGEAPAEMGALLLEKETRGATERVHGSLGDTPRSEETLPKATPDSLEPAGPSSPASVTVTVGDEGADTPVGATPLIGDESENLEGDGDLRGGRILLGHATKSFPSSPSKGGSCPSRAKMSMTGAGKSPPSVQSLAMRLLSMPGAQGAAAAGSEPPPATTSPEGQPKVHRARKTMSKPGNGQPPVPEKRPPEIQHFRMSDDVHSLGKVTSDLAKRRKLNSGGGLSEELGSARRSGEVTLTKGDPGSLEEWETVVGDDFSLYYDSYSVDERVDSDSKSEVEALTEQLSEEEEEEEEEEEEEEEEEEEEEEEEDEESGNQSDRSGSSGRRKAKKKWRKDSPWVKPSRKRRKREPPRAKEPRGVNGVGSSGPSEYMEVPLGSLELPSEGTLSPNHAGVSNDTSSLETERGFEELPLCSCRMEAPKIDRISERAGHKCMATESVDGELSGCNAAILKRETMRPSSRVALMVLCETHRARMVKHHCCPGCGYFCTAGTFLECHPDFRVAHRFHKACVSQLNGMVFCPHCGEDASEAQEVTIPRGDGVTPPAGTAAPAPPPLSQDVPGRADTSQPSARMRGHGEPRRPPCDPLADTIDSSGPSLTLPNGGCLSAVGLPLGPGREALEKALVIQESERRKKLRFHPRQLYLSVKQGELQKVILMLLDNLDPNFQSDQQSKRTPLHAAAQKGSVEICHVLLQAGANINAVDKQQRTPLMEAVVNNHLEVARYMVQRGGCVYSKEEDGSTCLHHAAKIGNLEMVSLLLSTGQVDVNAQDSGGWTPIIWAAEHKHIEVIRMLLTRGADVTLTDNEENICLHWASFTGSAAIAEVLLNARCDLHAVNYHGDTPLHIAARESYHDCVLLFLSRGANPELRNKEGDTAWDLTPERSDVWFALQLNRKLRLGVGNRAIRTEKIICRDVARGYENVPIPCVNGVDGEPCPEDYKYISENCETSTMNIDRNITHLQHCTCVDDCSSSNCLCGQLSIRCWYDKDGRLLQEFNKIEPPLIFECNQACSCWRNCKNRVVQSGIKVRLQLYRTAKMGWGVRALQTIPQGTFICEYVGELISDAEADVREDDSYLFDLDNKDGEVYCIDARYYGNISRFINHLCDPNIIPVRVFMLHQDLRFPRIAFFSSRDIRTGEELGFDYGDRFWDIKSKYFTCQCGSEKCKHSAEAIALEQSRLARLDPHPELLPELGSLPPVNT
# [4] = Cmax in mouse at 25 mg/kg, ip; type: ADME, organism-based; conditions: in vivo
# [5] = target: T2, Histone-lysine N-methyltransferase EHMT1/EHMT2 (Homo sapiens, UniProt Q9H9B1+Q96KQ7); experiment: Inhibition of G9a/GLP in human MDA-MB-231 cells assessed as reduction in H3K9 dimethylation incubated for 3 days by Western blotting analysis; type: cell-based
# T2 sequence (Q9H9B1 whole entry): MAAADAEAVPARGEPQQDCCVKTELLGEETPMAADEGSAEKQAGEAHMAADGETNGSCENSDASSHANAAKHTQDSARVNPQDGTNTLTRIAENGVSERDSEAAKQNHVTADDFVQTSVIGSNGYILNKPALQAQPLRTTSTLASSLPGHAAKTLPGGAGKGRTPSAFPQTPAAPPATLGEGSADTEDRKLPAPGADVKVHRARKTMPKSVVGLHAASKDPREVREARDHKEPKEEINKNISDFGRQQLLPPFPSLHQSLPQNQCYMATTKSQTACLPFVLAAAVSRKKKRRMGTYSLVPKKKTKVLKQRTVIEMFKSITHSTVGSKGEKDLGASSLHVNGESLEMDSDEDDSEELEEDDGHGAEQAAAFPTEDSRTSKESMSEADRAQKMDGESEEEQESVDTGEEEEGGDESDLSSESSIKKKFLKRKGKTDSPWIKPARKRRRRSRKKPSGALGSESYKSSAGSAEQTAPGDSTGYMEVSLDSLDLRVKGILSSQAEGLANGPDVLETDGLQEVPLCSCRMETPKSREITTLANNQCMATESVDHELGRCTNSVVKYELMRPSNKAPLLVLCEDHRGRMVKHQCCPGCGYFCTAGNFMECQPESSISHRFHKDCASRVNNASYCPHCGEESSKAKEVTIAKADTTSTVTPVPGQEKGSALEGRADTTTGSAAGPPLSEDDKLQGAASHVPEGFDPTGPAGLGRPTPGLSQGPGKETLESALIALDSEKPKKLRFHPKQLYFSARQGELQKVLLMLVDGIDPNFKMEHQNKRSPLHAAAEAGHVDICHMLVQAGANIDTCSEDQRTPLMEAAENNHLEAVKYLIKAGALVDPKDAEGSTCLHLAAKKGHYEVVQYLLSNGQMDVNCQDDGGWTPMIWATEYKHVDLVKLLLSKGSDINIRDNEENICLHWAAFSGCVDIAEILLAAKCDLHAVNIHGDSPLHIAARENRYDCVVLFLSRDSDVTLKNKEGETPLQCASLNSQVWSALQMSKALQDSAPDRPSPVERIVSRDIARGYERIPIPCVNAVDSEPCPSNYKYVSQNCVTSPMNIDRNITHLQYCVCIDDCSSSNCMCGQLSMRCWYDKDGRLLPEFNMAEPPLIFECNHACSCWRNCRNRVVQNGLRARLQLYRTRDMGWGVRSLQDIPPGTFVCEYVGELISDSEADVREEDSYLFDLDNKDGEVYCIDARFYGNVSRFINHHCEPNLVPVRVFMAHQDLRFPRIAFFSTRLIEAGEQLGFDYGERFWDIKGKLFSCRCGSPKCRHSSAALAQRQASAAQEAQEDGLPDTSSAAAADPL
# T2 sequence (Q96KQ7 whole entry): T1 sequence (Q96KQ7 whole entry)
# [6] = test system: MCF7; experiment: Antiproliferative activity against human MCF7 cells assessed as reduction in cell growth measured after 72 hrs by MTT assay; type: functional, cell-based; conditions: MCF7, 72 h
# [7] = test system: A549; experiment: Antiproliferative activity against human A549 cells assessed as reduction in cell viability measured after 72 hrs by MTT assay; type: functional, cell-based; conditions: A549, 72 h
# [8] = test system: K562; experiment: Antiproliferative activity against human K562 cells assessed as reduction in cell growth measured after 72 hrs by MTT assay; type: functional, cell-based; conditions: K562, 72 h
# [9] = target: von Hippel-Lindau disease tumor suppressor/Histone-lysine N-methyltransferase EHMT1 (Homo sapiens, UniProt Q9H9B1+P40337); experiment: PROTAC activity at GLP/VHL in human 22Rv1 cells assessed as induction of GLP degradation at 1 uM incubated for 24 hrs by Western blot analysis; type: cell-based
# [10] = target: von Hippel-Lindau disease tumor suppressor/Histone-lysine N-methyltransferase EHMT2 (Homo sapiens, UniProt Q96KQ7+P40337); experiment: PROTAC activity at G9a/VHL in human 22Rv1 cells assessed as induction of G9a degradation at 1 uM incubated for 24 hrs by Western blot analysis; type: cell-based
# Chain of von Hippel-Lindau disease tumor suppressor/Histone-lysine N-methyltransferase EHMT2 (P40337 whole entry, one chain of several): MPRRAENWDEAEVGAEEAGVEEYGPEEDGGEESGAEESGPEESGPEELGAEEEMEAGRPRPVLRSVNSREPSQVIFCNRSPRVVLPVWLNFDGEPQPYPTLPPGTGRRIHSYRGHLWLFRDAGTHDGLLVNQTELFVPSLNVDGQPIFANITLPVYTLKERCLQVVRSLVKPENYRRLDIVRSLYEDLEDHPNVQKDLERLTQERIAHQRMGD
# Chain of DNA (cytosine-5)-methyltransferase 1 (P26358 whole entry): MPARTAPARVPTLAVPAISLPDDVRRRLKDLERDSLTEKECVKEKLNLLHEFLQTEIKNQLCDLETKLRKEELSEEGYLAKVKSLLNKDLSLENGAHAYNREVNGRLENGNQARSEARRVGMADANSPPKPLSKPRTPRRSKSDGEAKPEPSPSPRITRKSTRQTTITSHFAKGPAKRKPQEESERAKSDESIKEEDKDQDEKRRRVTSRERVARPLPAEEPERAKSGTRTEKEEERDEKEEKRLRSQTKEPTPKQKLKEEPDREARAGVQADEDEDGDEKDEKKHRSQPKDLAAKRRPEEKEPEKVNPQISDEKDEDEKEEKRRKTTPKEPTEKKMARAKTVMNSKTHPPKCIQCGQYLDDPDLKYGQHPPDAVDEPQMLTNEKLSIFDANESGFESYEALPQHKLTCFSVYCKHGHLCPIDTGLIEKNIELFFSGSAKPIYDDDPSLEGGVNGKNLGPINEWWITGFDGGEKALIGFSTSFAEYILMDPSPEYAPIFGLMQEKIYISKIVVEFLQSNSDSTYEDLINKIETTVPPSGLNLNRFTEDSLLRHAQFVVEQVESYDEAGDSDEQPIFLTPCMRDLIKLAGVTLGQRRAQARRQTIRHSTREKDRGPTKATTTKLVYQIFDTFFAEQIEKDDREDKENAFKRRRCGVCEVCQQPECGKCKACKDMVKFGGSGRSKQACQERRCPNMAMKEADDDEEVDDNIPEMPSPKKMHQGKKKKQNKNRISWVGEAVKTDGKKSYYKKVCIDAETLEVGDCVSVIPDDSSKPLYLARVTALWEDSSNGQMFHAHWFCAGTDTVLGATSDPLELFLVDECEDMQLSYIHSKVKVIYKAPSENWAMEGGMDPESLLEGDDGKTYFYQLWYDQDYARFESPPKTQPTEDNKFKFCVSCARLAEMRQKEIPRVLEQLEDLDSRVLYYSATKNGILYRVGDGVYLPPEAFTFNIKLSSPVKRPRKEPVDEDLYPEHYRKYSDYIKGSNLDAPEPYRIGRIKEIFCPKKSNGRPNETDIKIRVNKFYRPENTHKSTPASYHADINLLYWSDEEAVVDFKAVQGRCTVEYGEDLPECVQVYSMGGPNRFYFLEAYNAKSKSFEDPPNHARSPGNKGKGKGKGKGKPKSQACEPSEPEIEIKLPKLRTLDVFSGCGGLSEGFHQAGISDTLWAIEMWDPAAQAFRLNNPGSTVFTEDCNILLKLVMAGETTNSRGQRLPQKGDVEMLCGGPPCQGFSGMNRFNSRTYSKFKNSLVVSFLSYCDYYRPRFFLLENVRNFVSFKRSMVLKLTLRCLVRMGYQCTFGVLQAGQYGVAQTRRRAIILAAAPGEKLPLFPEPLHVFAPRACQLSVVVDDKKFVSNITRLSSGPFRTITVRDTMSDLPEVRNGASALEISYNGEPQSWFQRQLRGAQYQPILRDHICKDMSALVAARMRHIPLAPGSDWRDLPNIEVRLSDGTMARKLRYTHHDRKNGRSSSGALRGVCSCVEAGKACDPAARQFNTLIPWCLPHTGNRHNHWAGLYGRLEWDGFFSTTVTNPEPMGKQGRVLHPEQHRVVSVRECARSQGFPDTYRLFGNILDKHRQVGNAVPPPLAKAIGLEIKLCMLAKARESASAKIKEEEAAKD
# Chain of von Hippel-Lindau disease tumor suppressor/Histone-lysine N-methyltransferase EHMT1 (P40337 whole entry, one chain of several): as the sequence (P40337 whole entry, one chain of several) above
IC50 [1],IC50 [3],SMILES,also measured
16300 nM,,COc1cc2c(cc1OC)-c1c(C)c3cc(OC)c(OC)cc3c[n+]1CC2,
,,COC(=O)c1ccc2c(c1)nc(NC(=O)c1ccccc1)n2CCCc1ccccc1,EC50 [2]: 5000 nM
3060 nM,,Cc1ccc(SS(=O)(=O)c2ccc(C)cc2)cc1,
,2.9 nM,CCN(c1cc(-c2ccc(CN3CCOCC3)cc2)cc(C(=O)NCc2c(C)cc(C)[nH]c2=O)c1C)C1CCOCC1 [TAZEMETOSTAT],
27 nM,,Cc1c(C(=O)N[C@@H](CCC2CC2)C(=O)Nc2ccc(C#N)cc2)[nH]c2c1C(=O)CC(C)(C)C2,Cmax [4]: 42.4 µM
,,COc1ccc2c(NC3CCN(Cc4ccccc4)CC3)nc(NCCNC(=O)CCCCC(=O)NO)nc2c1,IC50 [5]: 7136 nM; EC50 [6]: 37400 nM; EC50 [7]: 36200 nM
1.8 nM,,CCN1C[C@H](NC(=O)c2cc3cc(Cl)ccc3[nH]2)[C@@H](OC)C1,
,67 nM,CCOc1ccc(Nc2cc(C)nc3ccc(Cl)cc23)cc1,
6500 nM,,CN(C)C(=O)Nc1ccc(CN2CCC(C(O)(c3ccc(C(F)(F)F)cc3)c3ccc(C(F)(F)F)cc3)CC2)cc1,IC50 [8]: 1700 nM
,,COc1cc2c(NC3CCN(CCCC(=O)NCCCCCCCCNc4cccc5c4C(=O)N(C4CCC(=O)NC4=O)C5=O)CC3)nc(C3CCCCC3)nc2cc1OCCCN1CCCC1 (configuration not stated),DC50 [9]: > 10000 nM; DC50 [10]: 100 nM
,126 nM,COc1cc2c(C3CCOCC3)nc(N)nc2cc1OCCCN1CCCC1,
,13 nM,COc1cc2nc(N3CCOCC3)nc(NC3CCN(C)CC3)c2cc1OC,
